The values that follow come from US20130116219A1, “ANTIMICROBIAL CARBOLINE COMPOUNDS” (ALCON RESEARCH, LTD., priority 2011, published 2013).

One experiment concerns Ad7a. The experiment can be described thus: Plaque reduction assay in A549 cells, Ad7a. It counts as cell-based. The note with it: unidentified adenovirus, 168 h, approximately 7 d, read-out: Adenovirus Serotype EC50 (μg/mL) Ad7a. Here is the method: (§1) Compounds of the present invention were tested for potency against AdV serotypes Ad3, Ad4, Ad5, Ad7a, Ad8, Ad19, and Ad37 in a plaque reduction assay, a cell-based assay of AdV replication. Ad8, Ad19, and Ad37 are the serotypes most commonly associated with epidemic keratoconjunctivitis (EKC). Ad3, Ad4, and Ad7a are serotypes most commonly associated with follicular conjunctivitis and serotype Ad5 can replicate in the NZW rabbit model of adenoviral ocular keratitis. Ad3, Ad4, Ad5, Ad7a, Ad8, and Ad19 were recovered at the Charles T. Campbell Ophthalmic Microbiology Laboratory from patients presenting with typical adenoviral ocular disease. No clinical isolates of Ad37 were available, so the ATCC (American Type Culture Collection, Manassas, Va.) reference strain of Ad37 was used.
(§2) EC50 values (μg/ml) for inhibition of adenoviral replication were determined by plaque reduction assay. Briefly, cultured A549 cells were inoculated with approximately 100 pfu of the indicated adenovirus serotype. Inoculated cells were overlaid with methylcellulose medium containing Compound 2 at 100, 10, 1, 0.1, 0.01, and 0.001 μg/ml, and incubated at 37° C./5% CO2 for approximately 7 d. Plates were stained with gentian violet, and plaques were counted in a 25× dissecting microscope. IC50, the concentration that inhibited plaque formation by 50%, was estimated from plots of mean plaque count vs. concentration.
In general terms: In a plaque reduction assay, fewer plaques than in the control indicate reduced infectivity or spread.

Another experiment relates to Ad19. The experiment can be described thus: Plaque reduction assay in A549 cells, Ad19. It counts as cell-based. The conditions noted are these: unidentified adenovirus, 168 h, approximately 7 d, read-out: Adenovirus Serotype EC50 (μg/mL) Ad19. On the procedure:
as §1, §2

Another experiment relates to Ad3. The experiment can be described thus: Plaque reduction assay in A549 cells, Ad3. The class given is cell-based. The conditions noted are these: unidentified adenovirus, 168 h, approximately 7 d, read-out: Adenovirus Serotype EC50 (μg/mL) Ad3. Here is the method:
as §1, §2

The test system of another experiment is Ad37. The experiment can be described thus: Plaque reduction assay in A549 cells, Ad37. It counts as cell-based. The conditions noted are these: unidentified adenovirus, 168 h, approximately 7 d, ATCC reference strain, read-out: Adenovirus Serotype EC50 (μg/mL) Ad37. Here is the method:
as §1, §2

In the next experiment the test system is Ad4. Kind of experiment: Plaque reduction assay in A549 cells, Ad4. The class given is cell-based. The conditions noted are these: unidentified adenovirus, 168 h, approximately 7 d, read-out: Adenovirus Serotype EC50 (μg/mL) Ad4. Here is the method: as §1, §2
The next experiment deals with Ad8. Kind of experiment: Plaque reduction assay in A549 cells, Ad8. The note with it: unidentified adenovirus, A549, 168 h, read-out: Adenovirus Serotype EC50 (μg/mL) Ad8. The class given is cell-based. On the procedure: as §1, §2
The subject of experiment [1] is Ad5. Kind of experiment: Ad5 genome replication assay (cell-based QPCR) in A549 cells. The conditions noted are these: Human adenovirus sp., A549, 72 h, read-out: Ad5 qPCR EC50 (μM). Here is the method:
Compounds of the present invention were tested for potency against Ad5 in an Ad5 genome replication assay, a cell-based QPCR assay of Ad5 genome replication in A549 cells, a human lung carcinoma cell line. Serotype of human Ad5, used in this replication assay can also replicate in a NZW rabbit model of adenoviral ocular keratitis.
EC50 values (μM) for inhibition of adenoviral replication were determined by QPCR. Briefly, 10,000 cultured A549 cells were inoculated with 25,000 pfu/well for 3 hrs in 2% FBS F12-K A549 culture media. Following inoculation, A549 cells were treated with log unit dilutions of compound of Formula I (˜10 μM thru˜10 pM) in 10% FBS F12-K culture media with 0.3% DMSO for an additional 3 days. Cell viability was assessed with Alamar Blue (10 μl/well for 2 hrs; fluorescence Ex353; Em595 nm). Plates were washed 3 times with 125 μl PBS, cell lysates were prepared for QPCR analysis using Cells to SNP kit (Life Technologies). Ad5 genome levels per cell were determined with RNaseP and Ad5 hexon Taqman Assays (Life Technologies). EC50, the concentration that inhibited Ad5 genome replication formation by 50%, was estimated from plots of Ad5 genomes/cell vs. compound concentration.
On the technique in general: Real-time PCR tracks product formation cycle by cycle.

For experiment [2], the system named is Ad5. The experiment can be described thus: Plaque reduction assay in A549 cells, Ad5. The note with it: unidentified adenovirus, A549, 168 h, read-out: Adenovirus Serotype EC50 (μg/mL) Ad5. It counts as cell-based. Here is the method:
as §1, §2

The next experiment concerns AdV serotype 5 (Ad5). The conditions noted are these: Harvey et al., Antiviral Res. 82:1-11, 2009; read-out: EC50, inhibition of replication of AdV serotype 5 (Ad5); cited from earlier work.
The subject of experiment [3] is human papillomavirus (HPV). The conditions noted are these: Harvey et al., Antiviral Res. 82:1-11, 2009; read-out: EC50, inhibition of replication of human papillomavirus (HPV); cited from earlier work.
The next experiment has as its system Epstein-Barr virus (EBV). The conditions noted are these: Harvey et al., Antiviral Res. 82:1-11, 2009; read-out: EC50, inhibition of replication of Epstein-Barr virus (EBV); cited from earlier work.
For a further experiment, the system named is polyoma virus SV40. The conditions noted are these: Harvey et al., Antiviral Res. 82:1-11, 2009; read-out: EC50, inhibition of replication of polyoma virus SV40; cited from earlier work.

Values after ≈ are worked out from the molar mass of the structure shown.

For the compound `CC(C)C[C@H]1c2[nH]c3ccc(Cl)cc3c2CCN1C(=O)CCC1CCCCC1` [Compound 43, (S)-1-(6-chloro-1-isobutyl-3,4-dihydro-1H-pyrido[3,4-b]indol-2(9H)-yl)-3-cyclohexylpropan-1-one], the EC50 in the experiment with Ad7a was under 0.1 µg/mL; in the experiment on Ad19 it was under 0.1 µg/mL; in the experiment on Ad3 it was 0.1 to 1 µg/mL (≈ 0.249 to 2.49 µM); with Ad37, under 0.1 µg/mL; in the experiment on Ad4 it was 0.1 to 1 µg/mL (≈ 0.249 to 2.49 µM); with Ad8 it was under 0.1 µg/mL. In addition, the EC50 in the experiment with Ad5 [1] was under 0.1 µM; with Ad5 [2], under 0.1 µg/mL.

As to `CC(C)C[C@H]1c2[nH]c3ccc(Cl)cc3c2CCN1C(=O)C1CN(CCC(F)(F)F)C1` [Compound 47, (S)-(6-chloro-1-isobutyl-3,4-dihydro-1H-pyrido[3,4-b]indol-2(9H)-yl)(1-(3,3,3-trifluoropropyl)azetidin-3-yl)methanone], the EC50 in the experiment on Ad7a, in the experiment with Ad19, with Ad3, with Ad37, in the experiment on Ad4 and with Ad8 was 0.1 to 1 µg/mL (≈ 0.226 to 2.26 µM) each time. Further, the values for the EC50 in the experiment on Ad5 [1] and with Ad5 [2] were 0.1 to 1 µM and 0.1 to 1 µg/mL (≈ 0.226 to 2.26 µM), respectively.

With `CC(C)C[C@H]1c2[nH]c3ccc(Cl)cc3c2CCN1C(=O)CCN1CCN(CC(F)F)CC1` [Compound 73, (S)-1-(6-chloro-1-isobutyl-3,4-dihydro-1H-pyrido[3,4-b]indol-2(9H)-yl)-3-(4-(2,2-difluoroethyl)piperazin-1-yl)propan-1-one], the EC50 in the experiment with Ad7a is 0.1 to 1 µg/mL (≈ 0.214 to 2.14 µM); in the experiment with Ad19 it was over 1 µg/mL; in the experiment on Ad3, 0.1 to 1 µg/mL (≈ 0.214 to 2.14 µM); with Ad37 it was over 1 µg/mL; with Ad4, 0.1 to 1 µg/mL (≈ 0.214 to 2.14 µM); in the experiment with Ad8 it was 0.1 to 1 µg/mL (≈ 0.214 to 2.14 µM). In addition, the EC50 in the experiment with Ad5 [1] lay within 0.1 to 1 µM; in the experiment with Ad5 [2], 0.1 to 1 µg/mL (≈ 0.214 to 2.14 µM).

Regarding `CC(C)C[C@H]1c2[nH]c3ccc(Cl)cc3c2CCN1C(=O)CNC1CC1` [Compound 91, (S)-1-(6-chloro-1-isobutyl-3,4-dihydro-1H-pyrido[3,4-b]indol-2(9H)-yl)-2-(cyclopropylamino)ethanone], the EC50 in the experiment with Ad7a, in the experiment on Ad19, with Ad3, with Ad37, in the experiment on Ad4 and in the experiment on Ad8 was 0.1 to 1 µg/mL (≈ 0.278 to 2.78 µM) each time. For the same compound, the EC50 in the experiment on Ad5 [1] is under 0.1 µM; in the experiment on Ad5 [2], under 0.1 µg/mL.

With `CC(C)C[C@H]1c2[nH]c3ccc(Cl)cc3c2CCN1C(=O)C1CN(C2CC2)C1` [Compound 92, (S)-(6-chloro-1-isobutyl-3,4-dihydro-1H-pyrido[3,4-b]indol-2(9H)-yl)(1-cyclopropylazetidin-3-yl)methanone], the EC50 with Ad7a was 0.1 to 1 µg/mL (≈ 0.259 to 2.59 µM); with Ad19 it was 0.1 to 1 µg/mL (≈ 0.259 to 2.59 µM); in the experiment with Ad3, over 1 µg/mL; in the experiment on Ad37 it was 0.1 to 1 µg/mL (≈ 0.259 to 2.59 µM); in the experiment with Ad4 it was over 1 µg/mL; in the experiment on Ad8, over 1 µg/mL. Besides, the results for the EC50 in the experiment on Ad5 [1] and in the experiment on Ad5 [2] were 0.1 to 1 µM and 0.1 to 1 µg/mL (≈ 0.259 to 2.59 µM), respectively.

For `CC(C)C[C@H]1c2[nH]c3ccc(Cl)cc3c2CCN1C(=O)C1CCN(C2CC2)CC1` [Compound 93, (S)-(6-chloro-1-isobutyl-3,4-dihydro-1H-pyrido[3,4-b]indol-2(9H)-yl)(1-cyclopropylpiperidin-4-yl)methanone], the EC50 in the experiment on Ad7a, with Ad19, with Ad3, in the experiment with Ad37, in the experiment on Ad4 and in the experiment with Ad8 was 0.1 to 1 µg/mL (≈ 0.242 to 2.42 µM) each time. The EC50 is 0.1 to 1 µM in the experiment with Ad5 [1] and 0.1 to 1 µg/mL (≈ 0.242 to 2.42 µM) with Ad5 [2].

`CC(C)C[C@H]1c2[nH]c3ccc(Br)cc3c2CCN1C(=O)C1CCN(C2CC2)CC1` [Compound 97, (S)-(6-bromo-1-isobutyl-3,4-dihydro-1H-pyrido[3,4-b]indol-2(9H)-yl)(1-cyclopropylpiperidin-4-yl)methanone]: the EC50 in the experiment on Ad7a is 0.1 to 1 µg/mL (≈ 0.218 to 2.18 µM); in the experiment with Ad19 it was 0.1 to 1 µg/mL (≈ 0.218 to 2.18 µM); in the experiment on Ad3, 0.1 to 1 µg/mL (≈ 0.218 to 2.18 µM); in the experiment on Ad37, 0.1 to 1 µg/mL (≈ 0.218 to 2.18 µM); with Ad4, over 1 µg/mL; in the experiment with Ad8 it was under 0.1 µg/mL. For the same compound, the EC50 with Ad5 [1] was under 0.1 µM; in the experiment with Ad5 [2] it was under 0.1 µg/mL.

`O=C(N[C@@H]1CCCc2c1[nH]c1ccc(Cl)cc21)c1ccccn1` [GSK-983]: the EC50 (in the experiment on AdV serotype 5 (Ad5); in [3]; with Epstein-Barr virus (EBV); in the experiment with polyoma virus SV40) was 5 to 20 nM throughout.
